Patent publication US8575114B2, “SGLT-2 inhibitors, methods of making them, and uses thereof” (Albany Molecular Research, Inc., priority 2010, dated 2013)

Tests used:
hSGLT-2 = hSGLT-2 (Homo sapiens (Human), UniProt P31639); assay: [14C]AMG uptake inhibition in CHO-K1/hSGLT-2 cells; type: cell-based; conditions: 4 μM [14C]AMG, 3-hr incubation at 37° C., read-out: SGLT2, IC50
Method: The inhibitory activity of the compounds of this invention against the SGLT-1 or SGLT-2 transporters can be determined by the following assay. […] CHO-K1 cells transfected with pcDNA3.1 (Invitrogen Corp., Carlsbad, Calif.) containing either the full-length hSGLT-1 or hSGLT-2 using Lipofectamine 2000 (Invitrogen Corp., Carlsbad, Calif.) were selected for stable incorporation of the construct by resistance to the selective pressure of Geneticin (450 μg/ml; Invitrogen Corp., Carlsbad, Calif.). Monoclonal cell lines isolated by minimal dilution were screened for uptake activity of radiolabled methyl α-D-glucopyranoside ([^14C]AMG), a non-metabolizable glucose analogue, and a single clone for each transporter was selected for maximal transporter activity to be used for evaluating the inhibitory activity of the compounds of this invention. In brief, 35,000 cells (CHO-K1/hSGLT-1 or CHO-K1/hSGLT-2) were plated per well of a black tissue culture treated 96-well plate in Ham's F12 media supplemented with 10% heat inactivated FBS and allowed to attached overnight at 37° C. and 5% CO2. Compounds were serially diluted 3-fold in DMSO generating a nine (9) data point dose response curve for each compound. Two replicates were performed per determination. […] Following a 3-hr incubation at 37° C. and 5% CO2, the uptake reaction was stopped by washing the cells three (3) times with ice-cold D-PBS and then lysing the cells with 50 μl of Microscint-20. […] Data were fit to an empirical four-parameter model to determine the inhibitor concentration at half-maximal response (IC50). The assay window was established by control wells incubated with [^14C]AMG in the presence or absence of sodium. A dose response curve for phlorizin was generated on every plate as a positive control.

hSGLT-1 = hSGLT-1 (Homo sapiens (Human), UniProt P13866); assay: [14C]AMG uptake inhibition in CHO-K1/hSGLT-1 cells; type: cell-based; conditions: 4 μM [14C]AMG, 3-hr incubation at 37° C., read-out: SGLT-1, IC50
Excerpt: The inhibitory activity of the compounds of this invention against the SGLT-1 or SGLT-2 transporters can be determined by the following assay. The cDNAs for the human genes of SGLT-1 (SLC5A1—solute carrier family 5 sodium/glucose cotransporter member 1; Accession #NM_000343.1) or SGLT-2 (SLC5A2—member 2; Accession #NM_003041.2) were synthesized (OriGene Technologies, Inc.) and sub-cloned into the mammalian expression vector, pcDNA3.1 (Invitrogen Corp., Carlsbad, Calif.) using standard molecular biology techniques. CHO-K1 cells transfected with pcDNA3.1 (Invitrogen Corp., Carlsbad, Calif.) containing either the full-length hSGLT-1 or hSGLT-2 using Lipofectamine 2000 (Invitrogen Corp., Carlsbad, Calif.) were selected for stable incorporation of the construct by resistance to the selective pressure of Geneticin (450 μg/ml; Invitrogen Corp., Carlsbad, Calif.). Monoclonal cell lines isolated by minimal dilution were screened for uptake activity of radiolabled methyl α-D-glucopyranoside ([^14C]AMG), a non-metabolizable glucose analogue, and a single clone for each transporter was selected for maximal transporter activity to be used for evaluating the inhibitory activity of the compounds of this invention. In brief, 35,000 cells (CHO-K1/hSGLT-1 or CHO-K1/hSGLT-2) were plated per well of a black tissue culture treated 96-well plate in Ham's F12 media supplemented with 10% heat inactivated FBS and allowed to attached overnight at 37° C. and 5% CO2. Compounds were serially diluted 3-fold in DMSO generating a nine (9) data point dose response curve for each compound. Two replicates were performed per determination. The compounds were then diluted into Uptake Buffer (10 mM Hepes, 5 mM Tris, 137 mM NaCl, 5.4 mM KCl, 2.8 mM CaCl2, and 1.2 mM MgSO4, pH 7.4) with a final DMSO concentration of 0.9% (v/v). After the overnight incubation and prior to compound treatment, the cells were washed twice with Sodium Free Buffer in which the sodium chloride was replaced with 137 mM Choline Chloride, and then incubated with 4 μM [^14C]AMG in Uptake Buffer in the presence or absence of diluted compound. Following a 3-hr incubation at 37° C. and 5% CO2, the uptake reaction was stopped by washing the cells three (3) times with ice-cold D-PBS and then lysing the cells with 50 μl of Microscint-20. After 15-min, the amount of radioactivity that was incorporated into the cells was quantified using a Microbeta reader. Data were fit to an empirical four-parameter model to determine the inhibitor concentration at half-maximal response (IC50). The assay window was established by control wells incubated with [^14C]AMG in the presence or absence of sodium. A dose response curve for phlorizin was generated on every plate as a positive control.

Sequence of hSGLT-1 (P13866 whole entry): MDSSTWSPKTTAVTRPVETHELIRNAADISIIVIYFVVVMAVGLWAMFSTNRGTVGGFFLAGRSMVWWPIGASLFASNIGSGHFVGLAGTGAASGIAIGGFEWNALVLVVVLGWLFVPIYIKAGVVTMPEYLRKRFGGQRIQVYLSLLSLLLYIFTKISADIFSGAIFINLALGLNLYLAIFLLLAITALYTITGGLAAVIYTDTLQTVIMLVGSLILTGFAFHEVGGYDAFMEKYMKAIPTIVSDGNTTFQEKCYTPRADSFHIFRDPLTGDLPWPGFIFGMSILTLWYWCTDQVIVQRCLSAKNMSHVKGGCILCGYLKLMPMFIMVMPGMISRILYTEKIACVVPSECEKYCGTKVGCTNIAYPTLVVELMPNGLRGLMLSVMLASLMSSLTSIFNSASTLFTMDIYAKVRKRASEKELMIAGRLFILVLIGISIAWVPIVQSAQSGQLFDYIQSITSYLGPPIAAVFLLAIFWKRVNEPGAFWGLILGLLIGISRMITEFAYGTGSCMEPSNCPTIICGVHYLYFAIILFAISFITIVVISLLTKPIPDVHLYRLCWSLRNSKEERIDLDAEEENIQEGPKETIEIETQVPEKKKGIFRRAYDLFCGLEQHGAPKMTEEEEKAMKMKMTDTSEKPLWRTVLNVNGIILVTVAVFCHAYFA
Sequence of hSGLT-2 (P31639 whole entry): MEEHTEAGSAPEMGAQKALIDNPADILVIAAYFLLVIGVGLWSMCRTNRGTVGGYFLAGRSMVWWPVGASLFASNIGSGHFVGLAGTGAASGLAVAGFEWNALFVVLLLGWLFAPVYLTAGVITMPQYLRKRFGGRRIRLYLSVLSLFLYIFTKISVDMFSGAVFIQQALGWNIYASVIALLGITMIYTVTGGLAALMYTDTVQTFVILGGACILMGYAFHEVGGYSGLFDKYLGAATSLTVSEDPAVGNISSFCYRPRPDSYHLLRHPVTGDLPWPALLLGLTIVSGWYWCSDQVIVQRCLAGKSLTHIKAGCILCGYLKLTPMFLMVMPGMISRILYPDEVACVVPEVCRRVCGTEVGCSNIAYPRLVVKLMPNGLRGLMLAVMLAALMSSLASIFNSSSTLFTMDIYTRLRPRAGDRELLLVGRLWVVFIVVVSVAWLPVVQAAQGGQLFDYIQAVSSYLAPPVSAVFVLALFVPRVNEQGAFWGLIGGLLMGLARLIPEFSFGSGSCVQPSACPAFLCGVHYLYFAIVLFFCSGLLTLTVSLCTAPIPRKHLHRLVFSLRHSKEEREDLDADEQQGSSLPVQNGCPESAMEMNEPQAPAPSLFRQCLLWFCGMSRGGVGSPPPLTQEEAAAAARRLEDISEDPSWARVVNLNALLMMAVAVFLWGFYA

Structure (SMILES)	IC50 (hSGLT-2) [nM]	IC50 (hSGLT-1) [µM]
O=c1n(Cc2cc([C@@H]3O[C@H](CO)[C@@H](O)[C@H](O)[C@H]3O)ccc2Cl)nc2ccc(Cl)cn12 [I-8, 6-chloro-2-(2-chloro-5-((2S,3R,4R,5S,6R)-3,4,5-trihydroxy-6-(hydroxymethyl)tetrahydro-2H-pyran-2-yl)benzyl)-[1,2,4]triazolo[4,3-a]pyridin-3(2H)-one]	81.1	61.2
Cc1ccc2nn(Cc3cc([C@@H]4O[C@H](CO)[C@@H](O)[C@H](O)[C@H]4O)ccc3Cl)c(=O)n2c1 [I-2, 2-(2-chloro-5-((2S,3R,4R,5S,6R)-3,4,5-trihydroxy-6-(hydroxymethyl)tetrahydro-2H-pyran-2-yl)benzyl)-6-methyl-[1,2,4]triazolo[4,3-a]pyridin-3(2H)-one]	129	67.4
O=c1n(Cc2cc([C@@H]3O[C@H](CO)[C@@H](O)[C@H](O)[C@H]3O)ccc2Cl)nc2ccc(CO)cn12 [I-6, 2-(2-chloro-5-((2S,3R,4R,5S,6R)-3,4,5-trihydroxy-6-(hydroxymethyl)tetrahydro-2H-pyran-2-yl)benzyl)-6-(hydroxymethyl)-[1,2,4]triazolo[4,3-a]pyridin-3(2H)-one]	145	> 90
O=c1n(Cc2cc([C@@H]3O[C@H](CO)[C@@H](O)[C@H](O)[C@H]3O)ccc2Cl)nc2ccccn12 [I-1, 2-(2-chloro-5-((2S,3R,4R,5S,6R)-3,4,5-trihydroxy-6-(hydroxymethyl)tetrahydro-2H-pyran-2-yl)benzyl)-[1,2,4]triazolo[4,3-a]pyridin-3(2H)-one]	82.8	24.2
OC[C@H]1O[C@@H](c2ccc(Cl)c(Cn3nc4ccccn4c3=S)c2)[C@H](O)[C@@H](O)[C@@H]1O [I-7, 2-(2-chloro-5-((2S,3R,4R,5S,6R)-3,4,5-trihydroxy-6-(hydroxymethyl)tetrahydro-2H-pyran-2-yl)benzyl)-[1,2,4]triazolo[4,3-a]pyridine-3(2H)-thione]	316	> 73.2
O=c1n(Cc2cc([C@@H]3O[C@H](CO)[C@@H](O)[C@H](O)[C@H]3O)ccc2Cl)nc2ccc(F)cn12 [I-11, 2-(2-chloro-5-((2S,3R,4R,5S,6R)-3,4,5-trihydroxy-6-(hydroxymethyl)tetrahydro-2H-pyran-2-yl)benzyl)-6-fluoro-[1,2,4]triazolo[4,3-a]pyridin-3(2H)-one]	222	
Cc1ccn2c(=O)n(Cc3cc([C@@H]4O[C@H](CO)[C@@H](O)[C@H](O)[C@H]4O)ccc3Cl)nc2c1 [I-9, 2-(2-chloro-5-((2S,3R,4R,5S,6R)-3,4,5-trihydroxy-6-(hydroxymethyl)tetrahydro-2H-pyran-2-yl)benzyl)-7-methyl-[1,2,4]triazolo[4,3-a]pyridin-3(2H)-one]	109	
Cc1cc2nn(Cc3cc([C@@H]4O[C@H](CO)[C@@H](O)[C@H](O)[C@H]4O)ccc3Cl)c(=O)n2cc1Cl [I-12, 6-chloro-2-(2-chloro-5-((2S,3R,4R,5S,6R)-3,4,5-trihydroxy-6-(hydroxymethyl)tetrahydro-2H-pyran-2-yl)benzyl)-7-methyl-[1,2,4]triazolo[4,3-a]pyridin-3(2H)-one]	36.6	> 90
O=c1n(Cc2cc([C@@H]3O[C@H](CO)[C@@H](O)[C@H](O)[C@H]3O)ccc2Cl)nc2cc(CO)ccn12 [I-14, 2-(2-chloro-5-((2S,3R,4R,5S,6R)-3,4,5-trihydroxy-6-(hydroxymethyl)tetrahydro-2H-pyran-2-yl)benzyl)-7-(hydroxymethyl)-[1,2,4]triazolo[4,3-a]pyridin-3(2H)-one]	170	> 90
O=c1n(Cc2cc([C@@H]3O[C@H](CO)[C@@H](O)[C@H](O)[C@H]3O)ccc2Cl)nc2ccc(CCO)cn12 [I-15, 2-(2-chloro-5-((2S,3R,4R,5S,6R)-3,4,5-trihydroxy-6-(hydroxymethyl)tetrahydro-2H-pyran-2-yl)benzyl)-6-(2-hydroxyethyl)-[1,2,4]triazolo[4,3-a]pyridin-3(2H)-one]	463	> 90
O=c1n(Cc2cc([C@@H]3O[C@H](CO)[C@@H](O)[C@H](O)[C@H]3O)ccc2Cl)nc2ccc(C(F)(F)F)cn12 [I-5, 2-(2-chloro-5-((2S,3R,4R,5S,6R)-3,4,5-trihydroxy-6-(hydroxymethyl)tetrahydro-2H-pyran-2-yl)benzyl)-6-(trifluoromethyl)-[1,2,4]triazolo[4,3-a]pyridin-3(2H)-one]	991	> 90
CC(C)N1C(=O)CN(c2ccc(Cc3cc([C@@H]4O[C@H](CO)[C@@H](O)[C@H](O)[C@H]4O)ccc3Cl)cc2)C1=O [III-4, 1-(4-(2-chloro-5-((2S,3R,4R,5S,6R)-3,4,5-trihydroxy-6-(hydroxymethyl)tetrahydro-2H-pyran-2-yl)benzyl)phenyl)-3-isopropylimidazolidine-2,4-dione]	23.6	35.4

Further lines, results first:

IC50 (hSGLT-2) [nM]	IC50 (hSGLT-1) [µM]	Structure (SMILES)
11.4	17.5	CCN1C(=O)CN(c2ccc(Cc3cc([C@@H]4O[C@H](CO)[C@@H](O)[C@H](O)[C@H]4O)ccc3Cl)cc2)C1=O [III-2, 1-(4-(2-chloro-5-((2S,3R,4R,5S,6R)-3,4,5-trihydroxy-6-(hydroxymethyl)tetrahydro-2H-pyran-2-yl)benzyl)phenyl)-3-ethylimidazolidine-2,4-dione]
148	0.083	CN1CC(=O)N(c2ccc(Cc3cc([C@@H]4O[C@H](CO)[C@@H](O)[C@H](O)[C@H]4O)ccc3Cl)cc2)C1=O [III-3, 3-(4-(2-chloro-5-((2S,3R,4R,5S,6R)-3,4,5-trihydroxy-6-(hydroxymethyl)tetrahydro-2H-pyran-2-yl)benzyl)phenyl)-1-methylimidazolidine-2,4-dione]
542	71.5	O=c1c2ccoc2ccn1Cc1cc([C@@H]2O[C@H](CO)[C@@H](O)[C@H](O)[C@H]2O)ccc1Cl [II-2, 5-(2-chloro-5-((2S,3R,4R,5S,6R)-3,4,5-trihydroxy-6-(hydroxymethyl)tetrahydro-2H-pyran-2-yl)benzyl)furo[3,2-c]pyridin-4(5H)-one]
226	> 90	OC[C@H]1O[C@@H](c2ccc(Cl)c(Cc3ccc4ncnn4c3)c2)[C@H](O)[C@@H](O)[C@@H]1O [II-1, (2S,3R,4R,5S,6R)-2-(3-([1,2,4]triazolo[1,5-a]pyridin-6-ylmethyl)-4-chlorophenyl)-6-(hydroxymethyl)tetrahydro-2H-pyran-3,4,5-triol]
489	> 90	CN1C(=O)N(c2ccc(Cc3cc([C@@H]4O[C@H](CO)[C@@H](O)[C@H](O)[C@H]4O)ccc3Cl)cc2)C(C)(C)C1=O [III-5, 1-(4-(2-chloro-5-((2S,3R,4R,5S,6R)-3,4,5-trihydroxy-6-(hydroxymethyl)tetrahydro-2H-pyran-2-yl)benzyl)phenyl)-3,5,5-trimethylimidazolidine-2,4-dione]
